The values below come from PubChem BioAssay AID1996.

≈ marks a conversion by molar mass, not a printed value.

The conditions of the series: buffer; pH 7.4; 200.0 µM.
As to `N/C(=N\OC(=O)c1cccs1)c1ccc(Cl)cc1`, the kinetic solubility was determined as 3.5 µg/mL (≈ 12.5 µM).

As to `COc1ccc(-c2noc(CCC(=O)NC3CCCC3)n2)cc1`, the solubility (kinetic) is 27.2 µg/mL (≈ 86.2 µM). In turn, `Cn1cccc1C1CCCN1CC(=O)Nc1ccc(C(N)=O)cc1` (centres undefined) gave a kinetic solubility of more than 49 µg/mL. `COc1ccc(CCC(C)NCc2cc(OC)cc(OC)c2)cc1` (centres undefined): the solubility (kinetic) amounted to 38.7 µg/mL (≈ 117 µM). Then `Cc1cccc(C)c1OCCCCN1CCCCC1.O=C(O)C(=O)O`, with 45.4 µg/mL.

On to `O=C(Cn1cnc2ccccc2c1=O)NCc1cccs1`, for which the solubility (kinetic) was found to be 35.6 µg/mL (≈ 119 µM). This solubility kinetic and that of the compound before are within 1.5-fold of each other. Take `Cc1ccc(C(=O)c2ccccc2C(=O)OCC(=O)N2CCCC2)cc1`: the kinetic solubility was more than 52.7 µg/mL. On to `COc1ccc(Oc2ncccc2NC(=O)c2cccc(C)c2C)cc1`, for which the solubility (kinetic) was determined as 5.9 µg/mL (≈ 16.9 µM).

Take `Cc1nccn1Cc1ccccc1`: the kinetic solubility was 24.7 µg/mL (≈ 143 µM).

Turning to `CCC1C(=O)N=C(SCC(=O)Nc2nc3ccccc3s2)NC1=O` (centres undefined), the solubility (kinetic) is more than 54.4 µg/mL.

In turn, `O=C(O)C1CC(O)CN1C(=S)Nc1ccccc1` (centres undefined) returned a kinetic solubility of more than 39.9 µg/mL. For the compound `Fc1cccc(F)c1-c1nc(-c2ccc(Cl)cc2)no1`, the solubility (kinetic) is less than 0.3 µg/mL. `CCC(C)NC(=O)CSc1ncnc2sccc12` (centres undefined): the kinetic solubility was more than 42.2 µg/mL. As for `CCCC(=O)N1CCC(CCC(=O)NC2CC2)CC1`, the figure is more than 40 µg/mL; as for `CCOC(=O)CN1C(=O)S/C(=C\c2ccc(-c3cccc(C(=O)O)c3C)o2)C1=O`, 56.9 µg/mL (≈ 137 µM); as for `CC(=O)CC(=O)C1C(=O)N(C)C(=O)N(C)C1=O`, more than 36 µg/mL. In turn, `Cl.NCCSC1CC(=O)N(c2ccc(F)cc2)C1=O` (centres undefined) showed a solubility (kinetic) of 29.5 µg/mL. Then `CN(C)C(CNC(=O)c1cc(-c2ccco2)nc2ccccc12)c1ccccc1` (centres undefined), with 33.9 µg/mL (≈ 87.9 µM).

Compound `Cc1ccc(S(=O)(=O)NCCNc2ccc([N+](=O)[O-])cc2)cc1` returned a solubility (kinetic) of 32.8 µg/mL (≈ 97.8 µM). This solubility kinetic and that of the compound before are within 1.5-fold of each other. With `COC(=O)c1ccccc1NC(=S)N(C)C`, the solubility (kinetic) came to 34.2 µg/mL (≈ 144 µM). In the case of `O=[N+]([O-])c1ccc(Cc2ccccn2)c([N+](=O)[O-])c1`, the kinetic solubility is 33.6 µg/mL (≈ 130 µM).

Regarding `O=C(Nc1cccc2c1CCCC2)c1ccccc1Cl`, the solubility (kinetic) was found to be 1.8 µg/mL (≈ 6.3 µM). `Cc1ccc(-c2nc(-c3ccncc3)no2)cc1C` returned a solubility (kinetic) of 0.7 µg/mL (≈ 2.79 µM). Compound `Cc1cccc(OCC2CCCN(Cc3nc(C4CC4)no3)C2)c1` (centres undefined) yielded a kinetic solubility of 12.8 µg/mL (≈ 39.1 µM).

`COC(=O)c1ccc(-n2c(C)cc(C(=O)COC(=O)C3=COCCO3)c2C)cc1` registered a solubility (kinetic) of 3.7 µg/mL (≈ 9.26 µM). The compound `CC(Cc1c[nH]c2ccccc12)NC(=O)OCCCl` (centres undefined) yielded a kinetic solubility of more than 42.1 µg/mL. As for `Cc1ccc(NC(=O)CCC(=O)c2cccs2)cc1F`, the figure is 4.3 µg/mL (≈ 14.8 µM); as for `CCC1(CC)Cc2ccccc2-c2nc(CCl)[nH]c(=O)c21`, 1.2 µg/mL (≈ 3.96 µM). Compound `COc1cc(C(=O)Nc2cc(C)ccc2C)ccc1OCc1c(C)noc1C` had a solubility (kinetic) of 7.1 µg/mL (≈ 18.7 µM). With `COc1ccc(/C=C/C(=O)OCC(=O)Nc2ncc(Cl)cc2Cl)cc1`, the kinetic solubility was 8.1 µg/mL (≈ 21.2 µM). As for `Cn1c(N)c(C(=O)COC(=O)/C=C/c2ccc(Cl)cc2Cl)c(=O)n(C)c1=O`, the figure is 2.9 µg/mL (≈ 7.03 µM); as for `O=C(Nc1ccc(CN2CCS(=O)(=O)CC2)cc1)c1ccc(F)cc1`, 29.9 µg/mL (≈ 82.5 µM); as for `CCN(CC(=O)NCc1ccc2c(c1)OCO2)S(=O)(=O)c1ccc(F)cc1`, 55.6 µg/mL (≈ 141 µM). `O=C(c1ccccc1)N1CCN(C(=O)c2cccnc2)CC1` came in with a solubility (kinetic) of more than 44.3 µg/mL. For `NC(=O)c1ccccc1OCC(=O)N1CCCc2ccccc21`, the kinetic solubility is more than 46.6 µg/mL. Then `COc1ccccc1CNC(=O)c1sccc1C`, with 26.6 µg/mL (≈ 102 µM). Then `COc1ccccc1/C=C1\N=C(C(C)(C)C)OC1=O`, with 3 µg/mL (≈ 11.6 µM). Then `Cn1c(N)nc2ccccc2c1=O`, with 21.9 µg/mL (≈ 125 µM); and `Cc1cccc(C(=O)Nc2ccc3c(c2)nc(C)n3C)c1`, with 5.5 µg/mL (≈ 19.7 µM); and `N#CC(C#N)=Cc1c[nH]c(=O)c(C#N)c1Nc1ccccc1`, with more than 43.1 µg/mL. As to `Cc1cc(NC(=O)CSc2nncn2-c2ccccc2)no1`, the solubility (kinetic) is more than 47.3 µg/mL.

`O=C(Nc1ccc(F)cc1)c1ccc(S(=O)(=O)N2CCCC2)cc1` gave a kinetic solubility of 4.4 µg/mL (≈ 12.6 µM). As for `O=C1CSC(c2ccccn2)N1c1ccc(F)cc1F` (centres undefined), the figure is more than 43.8 µg/mL; as for `CC(NC(=S)Nc1ccccc1C(F)(F)F)C1CC2CCC1C2` (centres undefined), 2.1 µg/mL (≈ 6.13 µM); as for `Cc1ccc(S(=O)(=O)NC(=O)Nc2ccc(C)cc2C)cc1`, 35.1 µg/mL (≈ 110 µM). As for `CC(=O)c1cc2c(cc1NC(=O)CN(C)S(=O)(=O)c1cccs1)OCO2`, the figure is 6.4 µg/mL (≈ 16.1 µM); as for `CCc1ccc(C(=O)COC(=O)CNC(=O)Cc2ccccc2)cc1`, 36.6 µg/mL (≈ 108 µM). Compound `Cc1ccc(NC(=O)CNC(=O)c2ccco2)cc1Cl` displayed a solubility (kinetic) of 7 µg/mL (≈ 23.9 µM). Against the preceding compound, the solubility kinetic is about 5.2-fold lower.

With `COc1cccc(-n2ccnc2SCC(=O)Nc2cc(C)on2)c1`, the solubility (kinetic) is 37.5 µg/mL (≈ 109 µM).

As to `O=C(O)c1ccccc1C(=O)Nc1c(-c2ccccc2)nc2ccccn12`, the kinetic solubility worked out at 49.6 µg/mL (≈ 139 µM).

The compound `CN(Cc1ccc(F)cc1)C(=O)CCc1nnc(-c2ccccc2)o1` returned a kinetic solubility of more than 50.9 µg/mL.

For the compound `CCCc1[nH]n(-c2nc3ccccc3s2)c(=O)c1C=NCCCOC`, the kinetic solubility was more than 53.8 µg/mL.

As for `NS(=O)(=O)c1ccc(CNc2ncnc3sccc23)cc1`, the kinetic solubility is more than 48.1 µg/mL.

Take `CNC(=O)CN1C(=O)NC(Cc2c[nH]c3ccccc23)C1=O` (centres undefined): the solubility (kinetic) was more than 45 µg/mL. As for `Cc1cc(CNC(=O)Cc2ccc(F)cc2)c2ccccc2n1`, the figure is more than 46.3 µg/mL; as for `Cc1ccc(NS(=O)(=O)c2ccc(C(=O)NCCN3CCOCC3)cc2)cc1.Cl`, more than 66 µg/mL; as for `COc1ccc(NC(=S)NCc2cccnc2)cc1OC`, more than 45.5 µg/mL.

Compound `COc1cc(OC)c(C(=O)Nc2cccc3ccccc23)cc1OC` showed a solubility (kinetic) of less than 0.7 µg/mL. Then `O=C(COC(=O)c1ccco1)NC1CCCc2ccccc21` (centres undefined), with more than 44.9 µg/mL.

On to `Cn1c(SCC2CCCO2)nnc1-c1cccc([N+](=O)[O-])c1` (centres undefined), for which the solubility (kinetic) is more than 48.1 µg/mL. As for `O=C(c1cccc([N+](=O)[O-])c1)c1ccccn1`, the figure is more than 34.2 µg/mL. Take `Cc1ccc(N=C2NC(=O)/C(=C/c3cccn3C)S2)cc1C`: the solubility (kinetic) is 0.9 µg/mL (≈ 2.89 µM). As for `CCc1ccc(OCCn2ccnc2)cc1`, the figure is 19.7 µg/mL (≈ 91.1 µM); as for `CC1CCc2sc3ncnc(N4CCN(C)CC4)c3c2C1` (centres undefined), more than 45.4 µg/mL. Regarding `Cc1cccc(NC(=O)CNC(=O)COC(=O)C2CC2C)c1C` (centres undefined), the solubility (kinetic) is more than 47.8 µg/mL. As for `N#Cc1c(-c2cccnc2)cc(-c2ccccc2)nc1N`, the figure is 2.4 µg/mL (≈ 8.81 µM); as for `O=C(O)c1ccccc1C(=O)NC1=NN(c2ccccc2)CC1`, more than 46.4 µg/mL; as for `O=C(O)CC(CC(=O)Nc1ccc(-c2ccccc2)cc1)c1ccccc1` (centres undefined), more than 53.9 µg/mL. With `Cc1nc(CNS(=O)(=O)c2ccc(F)cc2)cs1`, the solubility (kinetic) is more than 43 µg/mL.

`CC(C)Oc1ccccc1C1(c2ccccc2)NC(=O)NC1=O` (centres undefined): the kinetic solubility was more than 46.6 µg/mL.

`COCCCNC(=S)N/N=C/c1ccc(O)cc1` registered a solubility (kinetic) of more than 40.1 µg/mL. Compound `CCc1nc2oc3ccccc3c(=O)c2c(=O)n1-c1ccc(C)cc1` yielded a solubility (kinetic) of 44.2 µg/mL (≈ 133 µM). With `Cc1cc(=O)[nH]c(SCC(=O)Nc2ccc(F)cc2)c1C#N`, the solubility (kinetic) is more than 47.6 µg/mL. In the case of `CC(=O)NC(C)C(=O)OCC(=O)c1ccc(-c2ccccc2)cc1` (centres undefined), the kinetic solubility stood at 21.9 µg/mL (≈ 67.3 µM).

A word on the solubility (kinetic): it is solubility judged after dilution from a stock solution rather than from solid.
